Results reported in patent US20190105381A1, “METHOD FOR PREPARING VIRAL PARTICLES WITH CYCLIC DINUCLEOTIDE AND USE OF SAID PARTICLES FOR TREATING CANCER” (priority 2016, published 2019).

Legend:
HEK293 cells = format: cell-based, human; settings: for effect on IFN induction by HIV-1-GFP: cGAS-reconstituted producer cells treated during virus preparation, 20 μM GW4869, 60 μM Ac-DEVD-CHO; for IFN response in target cells under pharmacological inhibition: cells treated 1 hour prior to infection, 5 μM, MOI=1
[1] = system: Ova-specific CD8+ T cells; test: CD8+ T cell responses after subcutaneous immunization (tetramer, IFN-g ELISPOT); format: in vivo, mice; settings: cGAMP at a far higher dose of cGAMP
[2] = system: IFNβ promoter reporter (p125-F-Luc); format: cell-based, human; settings: HEK293 cells transfected with 2 μg 2′-3′-cGAMP, 24 hours

## O=C(/C=C/c1ccc(/C=C/C(=O)Nc2ccc(C3=NCCN3)cc2)cc1)Nc1ccc(C2=NCCN2)cc1 [GW4869]
HEK293 cells
  effect on IFN induction by HIV-1-GFP: did not diminish IFN induction

## Nc1nc2c(ncn2[C@@H]2O[C@@H]3COP(=O)(O)O[C@H]4[C@@H](O)[C@H](n5cnc6c(N)ncnc65)O[C@@H]4COP(=O)(O)O[C@@H]2[C@@H]3O)c(=O)[nH]1 [cGAMP, 2′-3′-cyclic GMP-AMP]
[1]
  tumor-specific T cell response: not able to significantly induce
[2]
  IFN induction in response to cGAMP: induce IFN

## Cc1ccnc2c1NC(=O)c1cccnc1N2C1CC1 [nevirapine]
HEK293 cells
  IFN response in target cells under pharmacological inhibition: independent of reverse transcription and integration

## Cc1nnc(C(=O)NC(C)(C)c2nc(C(=O)NCc3ccc(F)cc3)c(O)c(=O)n2C)o1 [raltegravir]
HEK293 cells
  IFN response in target cells under pharmacological inhibition: independent of reverse transcription and integration

## Ac-DEVD-CHO
HEK293 cells
  effect on IFN induction by HIV-1-GFP: did not diminish IFN induction
